From paper PMC4269221 (Cell reports, 2014)
Entries after “also recorded” stand apart in the source; their conditions may differ.

Experiments:
[1] = system: p53-Mdm4 complexes in Saos-2 p53-Mdm4 ReBiL cells; assay: Real-time BiLC; assay type: cell-based; settings: 37 °C; for disruption of preformed p53-Mdm4 complexes in living cells: pre-induced cells, doxycycline withdrawal, 10% FBS media
[2] = system: p53-Mdm2 complexes in cell lysates; assay: BiLC assay using cell lysates, p53-Mdm2; assay type: biochemical; settings: absence of FBS, RT 10 minutes, luminescence at 26 °C
[3] = molecular target: p53-Mdm2 complexes in Saos-2 p53-Mdm2 ReBiL cells (Homo sapiens, UniProt Q00987); assay: Real-time BiLC; assay type: cell-based; settings: pre-induced cells, doxycycline withdrawal, 10% FBS media, 37 °C
[4] = system: Mdm2-Mdm4 N-terminal BiLC pair (U2OS Mdm4_111 - Mdm2_108 ReBiL cells); assay: ReBiL assay of the Mdm2-Mdm4 N-terminal BiLC pair in living cells; assay type: cell-based; settings: 500 ng/ml doxycycline, 24 hours, 37 °C
[5] = system: p53-Mdm4 complexes in cell lysates; assay: BiLC assay using cell lysates, p53-Mdm4; assay type: biochemical; settings: absence of FBS, RT 10 minutes, luminescence at 26 °C
[6] = system: Saos-2 cells; assay: Lactate dehydrogenase; assay type: cell-based; settings: absence of serum, 25 μM and 10 μM, 6 hr
[7] = system: Saos-2 cells (p53-null); assay: CellTiter Glo cell viability assay, Saos-2; settings: Saos-2 ReBiL cells, 6 hr, CellTiter Glo (Figure 5)

Chain of p53-Mdm2 complexes in Saos-2 p53-Mdm2 ReBiL cells (Q00987 whole entry, one chain of several): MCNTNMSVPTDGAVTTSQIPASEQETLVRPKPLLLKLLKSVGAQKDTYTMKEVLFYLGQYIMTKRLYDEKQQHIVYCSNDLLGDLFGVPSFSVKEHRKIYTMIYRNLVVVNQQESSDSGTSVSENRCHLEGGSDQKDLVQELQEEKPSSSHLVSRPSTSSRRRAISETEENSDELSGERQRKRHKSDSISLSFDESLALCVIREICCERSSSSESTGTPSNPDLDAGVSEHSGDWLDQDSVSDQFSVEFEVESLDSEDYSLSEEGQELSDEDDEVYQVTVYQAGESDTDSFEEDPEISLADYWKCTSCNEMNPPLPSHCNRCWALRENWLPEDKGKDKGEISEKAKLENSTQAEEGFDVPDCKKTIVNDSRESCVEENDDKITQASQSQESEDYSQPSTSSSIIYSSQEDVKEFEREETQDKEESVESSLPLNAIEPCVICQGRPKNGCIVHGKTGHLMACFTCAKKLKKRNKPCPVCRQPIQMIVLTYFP

Row | Compound | disruption of preformed p53-Mdm4 complexes in living cells [1] | p53-Mdm2 disruption in lysate BiLC assay [2] | disruption of preformed p53-Mdm2 complexes in living cells [3] | Mdm2-Mdm4 N-terminal domain BiLC signal (association) [4] | p53-Mdm4 disruption in lysate BiLC assay [5] | LDH leakage / cell membrane damage [6] | p53-independent cytotoxicity at high concentrations [7] | p53-Mdm4 BiLC signal (newly synthesized complexes) ([1]; doxycycline 500 ng/ml and compound added at Time = 0, 24-48 hr)
1 | RO-5963 | no effect | no activity | limited ability to disrupt; also recorded: moderately reduces | increased the BiLC signal; also recorded: enhances | no activity | – | – | –
2 | COc1ccc(C2=N[C@@H](c3ccc(Cl)cc3)[C@@H](c3ccc(Cl)cc3)N2C(=O)N2CCNC(=O)C2)c(OC(C)C)c1 [Nutlin-3a] | not affected; also recorded: has no effect | efficiently disrupted | – | did not promote | – | did not induce membrane leakage | induce p53-independent cytotoxicity | –
3 | CCOc1cc(/C=C2/C(=O)N(c3ccccc3)N=C2C)cc(Cl)c1OCC(=O)OC [SJ-172550] | – | no activity | – | – | no activity | – | – | No decrease; also recorded: lacks p53-Mdm4 disruption activity
